Measurements from patent US20250186541A1, “DLL3 TARGETING PEPTIDES AND CONSTRUCTS THEREOF” (MARIANA ONCOLOGY INC., priority 2023, published 2025).
Numbered stars: 1 amine (or outer) side, 2 acyl side, 3 side chain; on linkers, the order of the positions; unused ones are H or OH. Bridge positions count the residues as written; N and C are the ends. Square brackets hold non-standard residues; d marks the D form. Triazole bridges read from a SMILES are 1,4-linked. Peptide text beside a SMILES is read from it. * marks the point of attachment. Ala(piperidin-4-yl) = O=C([C@H](CC1CCN([*:3])CC1)N[*:1])[*:2]; DOTA = O=C(O)CN1CCN(CC(=O)O)CCN(CC(=O)*)CCN(CC(=O)O)CC1; 1Nal = N[C@@H](Cc1cccc2ccccc12)C(=O)O; 2Nal = N[C@@H](Cc1ccc2ccccc2c1)C(=O)O; Aha = [N-]=[N+]=NCC[C@H](N)C(=O)O; tBuAla = CC(C)(C)C[C@H](N)C(=O)O; AllylGly = C=CC[C@H](N)C(=O)O; αMeP = C[C@@]1(C(=O)O)CCCN1; Pra = C#CC[C@H](N)C(=O)O

The molecules below were run against T1, human DLL3 (Homo sapiens, UniProt Q9NYJ7) (assay: Affinity determination by Surface Plasmon Resonance (SPR), Biacore, 1:1 binding model). Conditions: biotinylated human DLL3 on streptavidin chip, 25° C.; NB = nonbinding.
T1 construct: biotin (biotinylated)
T1 sequence (Q9NYJ7 27-618): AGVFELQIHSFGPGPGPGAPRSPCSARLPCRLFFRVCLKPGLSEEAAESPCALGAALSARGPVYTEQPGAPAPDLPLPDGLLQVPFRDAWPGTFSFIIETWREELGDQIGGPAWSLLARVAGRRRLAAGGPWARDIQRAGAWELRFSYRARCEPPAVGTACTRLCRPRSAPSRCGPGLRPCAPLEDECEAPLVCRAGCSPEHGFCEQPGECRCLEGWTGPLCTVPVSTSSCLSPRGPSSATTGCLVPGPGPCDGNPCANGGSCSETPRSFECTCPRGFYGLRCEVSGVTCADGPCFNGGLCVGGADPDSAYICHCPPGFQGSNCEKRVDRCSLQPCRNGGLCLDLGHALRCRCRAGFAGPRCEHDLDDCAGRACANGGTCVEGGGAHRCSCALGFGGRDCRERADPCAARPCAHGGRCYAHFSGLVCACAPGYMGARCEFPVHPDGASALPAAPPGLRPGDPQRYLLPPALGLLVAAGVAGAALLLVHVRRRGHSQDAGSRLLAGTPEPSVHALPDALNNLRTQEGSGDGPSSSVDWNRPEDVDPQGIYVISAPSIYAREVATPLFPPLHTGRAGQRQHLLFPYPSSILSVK
Experimental: Example 3. Binding Affinity of Targeting Moieties Polypeptides to DLL3 Affinity Determination by Surface Plasmon Resonance (SPR)
SPR studies were performed on the compounds disclosed herein using the following protocol. […] Biotinylated target ligand human DLL3 was immobilized on a streptavidin sensor chip. A reference surface was set up for nonspecific binding and refractive index changes. For analysis of the kinetics of interactions, varying concentrations of samples were injected at a flow rate of 100 μL/min using running buffer containing 20 mM phosphate buffer with 2.7 mM KCl, 137 mM NaCl, 0.05% Surfactant P20 and 2% DMSO. Sensorgram curves were fitted with 1:1 binding model, and affinity and kinetic parameters were obtained using Biacore Insight evaluation 4.0. software.
Molecule CC(=O)N[C@H](C)C(=O)N[C@@H](CO)C(=O)N[C@@H](CC(=O)O)C(=O)N[C@H]1Cc2cn(nn2)CC[C@@H](C(=O)N2CCC[C@@]2(C)C(=O)N[C@@H](Cc2ccccc2)C(=O)N[C@@H](CC(=O)O)C(=O)N[C@H](CCCCNC(=O)CN2CCN(CC(=O)O)CCN(CC(=O)O)CCN(CC(=O)O)CC2)C(N)=O)NC(=O)[C@H](CC(N)=O)NC(=O)[C@H](Cc2ccc3ccccc3c2)NC(=O)[C@H](CCC(N)=O)NC(=O)[C@H](CC(C)(C)C)NC(=O)[C@H](Cc2cccc3ccccc23)NC1=O [Cpd #163, Ac-(D-Ala)-S-D-[Pra(5)]-(1Nal)-(t-Bu-Ala)-Q-(2Nal)-N-[DabN3(5)]-(aMe-P)-F -D-D-Lys(DOTA)-CONH2] (Ac-[dA]SD[Pra][1Nal][tBuAla]Q[2Nal]N[Aha][αMeP]FD[dK](DOTA)-NH2; triazole 4-10) has a Kd of over 300 nM.
Work on CC(=O)N[C@H](C)C(=O)N[C@@H](CO)C(=O)N[C@@H](CC(=O)O)C(=O)N[C@H]1Cc2cnnn2CC[C@@H](C(=O)N2CCC[C@@]2(C)C(=O)N[C@@H](Cc2ccccc2)C(=O)N[C@@H](CC(=O)O)C(=O)N[C@H](CCCCNC(=O)CN2CCN(CC(=O)O)CCN(CC(=O)O)CCN(CC(=O)O)CC2)C(N)=O)NC(=O)[C@H](CC(N)=O)NC(=O)[C@H](Cc2ccc3ccccc3c2)NC(=O)[C@H](CCC(N)=O)NC(=O)[C@H](CC(C)(C)C)NC(=O)[C@H](Cc2cccc3ccccc23)NC1=O [Cpd #164, Ac-(D-Ala)-S-D-[Pra(6)]-(1Nal)-(t-Bu-Ala)-Q-(2Nal)-N-[DabN3(6)]-(aMe-P)-F -D-D-Lys(DOTA)-CONH2] yielded a Kd of over 30 nM.
C[C@@H](NC(=O)CN1CCN(CC(=O)O)CCN(CC(=O)O)CCN(CC(=O)O)CC1)C(=O)N[C@@H](CO)C(=O)N[C@@H](CC(=O)O)C(=O)N[C@H]1C/C=C/C[C@@H](C(=O)N2CCC[C@@]2(C)C(=O)N[C@@H](Cc2ccccc2)C(=O)N[C@@H](CC(=O)O)C(N)=O)NC(=O)[C@H](CC(N)=O)NC(=O)[C@H](Cc2ccc3ccccc3c2)NC(=O)[C@H](CC2CCNCC2)NC(=O)[C@H](CC(C)(C)C)NC(=O)[C@H](Cc2cccc3ccccc23)NC1=O [Cpd #196, DOTA-(D-Ala)-S-D-AllyG(4)-(1Nal)-(t-Bu-Ala)-[3-(4-piperidinyl)-Ala]-(2Nal)-N-AllyG(4)-(aMe-P)-F-D-CONH2] ({DOTA}-[dA]SD[AllylGly][1Nal][tBuAla][Ala(piperidin-4-yl)][2Nal]N[AllylGly][αMeP]FD-NH2; staple (E) 4-10) showed a Kd of 0.52 nM.
In the case of CC(=O)N[C@H](C)C(=O)N[C@@H](CO)C(=O)N[C@@](C)(CC(=O)O)C(=O)N[C@H]1CCCC[C@@H](C(=O)N2CCC[C@@]2(C)C(=O)N[C@@H](Cc2ccccc2)C(=O)N[C@@H](CC(=O)O)C(N)=O)NC(=O)[C@H](CC(N)=O)NC(=O)[C@H](Cc2ccc3ccccc3c2)NC(=O)[C@H](Cc2ccc(CNC(=O)CN3CCN(CC(=O)O)CCN(CC(=O)O)CCN(CC(=O)O)CC3)cc2)NC(=O)[C@H](CC(C)(C)C)NC(=O)[C@H](Cc2cccc3ccccc23)NC1=O [Cpd #205, Ac-(D-Ala)-S-(aMe-Asp)-AllyG(4)*-(1Nal)-(t-Bu-Ala)-[PAF(DOTA)]-(2Nal)-N-AllyG(4)*-(aMe-P)-F-D-CONH2], the Kd is reported as 0.082 nM.
CC(=O)N[C@@H](CO)C(=O)N[C@@H](CC(=O)O)C(=O)N[C@H]1CSSC[C@@H](C(=O)N2CCC[C@H]2C(=O)N[C@@H](Cc2ccccc2)C(=O)N[C@@H](CC(=O)O)C(N)=O)NC(=O)[C@H](CC(N)=O)NC(=O)[C@H](Cc2c[nH]c3ccccc23)NC(=O)[C@H](CCC(N)=O)NC(=O)[C@H](CC(C)C)NC(=O)[C@H](Cc2c[nH]c3ccccc23)NC1=O [compound 5, Ac-S-D-C(3)-W-L-Q-W-N-C(3)-P-F-D-CONH2] (Ac-SDCWLQWNCPFD-NH2; disulfide 3-9) showed a Kd of over 100 nM.
With CSCC[C@H](NC(C)=O)C(=O)N[C@@H](CO)C(=O)N[C@@H](CC(=O)O)C(=O)N[C@H]1CSSC[C@@H](C(=O)N2CCC[C@H]2C(=O)N[C@@H](Cc2ccccc2)C(=O)N[C@@H](CC(=O)O)C(N)=O)NC(=O)[C@H](CC(N)=O)NC(=O)[C@H](Cc2c[nH]c3ccccc23)NC(=O)[C@H](CCC(N)=O)NC(=O)[C@H](CC(C)C)NC(=O)[C@@H](C)NC1=O [compound 11, Ac-M-S-D-C(3)-(D-Ala)-L-Q-W-N-C(3)-P-F-D-CONH2] (Ac-MSDC[dA]LQWNCPFD-NH2; disulfide 4-10) the Kd was over 100 nM.
